The values that follow come from patent US12655145B2, “P2X3 modulators” (GlaxoSmithKline Intellectual Property (No. 3) Limited, priority 2020, dated 2026).

As usually defined, the IC50 is the concentration that inhibits the measured activity by half.

The structures appear in SMILES notation. Some results are limits rather than exact numbers.

For one test, the target named is T1, P2X3 (Homo sapiens, UniProt P56373).
T1 construct: expressed in transfected cells; host or cells: HEK293
T1 sequence (P56373 1-397): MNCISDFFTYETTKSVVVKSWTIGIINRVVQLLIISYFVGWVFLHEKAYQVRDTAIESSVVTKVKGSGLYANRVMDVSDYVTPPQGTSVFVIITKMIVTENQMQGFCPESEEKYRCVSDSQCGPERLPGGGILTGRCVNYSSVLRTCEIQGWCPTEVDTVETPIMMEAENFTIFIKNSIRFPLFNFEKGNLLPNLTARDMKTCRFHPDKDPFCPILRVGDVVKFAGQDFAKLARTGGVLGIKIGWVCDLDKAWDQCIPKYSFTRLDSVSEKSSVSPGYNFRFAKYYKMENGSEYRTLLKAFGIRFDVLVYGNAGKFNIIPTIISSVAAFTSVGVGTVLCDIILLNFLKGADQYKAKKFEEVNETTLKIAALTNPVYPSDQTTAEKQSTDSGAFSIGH
Briefly: P2X3 Antagonist Assay (FLIPR calcium, Fluo-8, HEK293 cells transfected with human ion channel cDNAs, αβ-meATP stimulation). The class given is cell-based. Particulars: @ 1 μM, antagonist mode, αβ-meATP 3 μM. As for the experimental part: Example 59: P2X3 Antagonist Assay
HEK293 were transiently or stably transfected with human ion channel cDNAs as indicated in section 1. Stable transfectants were selected by coexpression with the antibiotic-resistance gene(s) incorporated into the expression plasmid(s). Selection pressure was maintained by including selection antibiotics in the culture medium. HEK293 cells were cultured in Dulbecco's Modified Eagle Medium/Nutrient Mixture F-12 (D-MEM/F-12) supplemented with 10% fetal bovine serum, 100 U/mL penicillin G sodium, 100 J·Lg/mL streptomycin sulfate and appropriate selection antibiotics.
The effect of each test article to act as an antagonist was evaluated. Each test article was evaluated at eight (8) concentrations (0.001, 0.003, 0.01, 0.03, 0.1, 0.3, 1 and 3 μM, n=3) with 4 replicates for each concentration. Experiments were performed with the FLIPR calcium sensitive dye kit (Fluo-8 dye, AAT, Bioquest) according to the manufacturer's instructions. • Dye-loading: Growth media will be removed and add 20 μL of Mg^++-free HBPS containing Fluo-8 for 30 min at 37° C. • Preincubation (FLIPR step 1): Adding 5× (5 μL) test, vehicle, or control article solutions in Mg^+-free HBPS to each well for 20 minutes at room temperature, protected from light. • Stimulation (FLIPR step 2): After pre-incubation, cells will be stimulated with 6× (5 μL) αβ-meATP at final concentration of 3 μM prepared in Mg^++-free HBPS. • Non-Specific Calcium Influx (FLIPR step 3): 5 minutes after stimulation solution addition, non-specific calcium influx will be activated by adding 7×(5 μL) ionomycin at a final concentration of 5 μM. Fluorescence will be recorded continuously during FLIPR steps 2 and 3. • Positive Control Antagonist: PPADS (1 mM).
Data acquisition was performed via the FLIPRControl software that is supplied with the FLIPR System (MDS-AT) and data was analyzed using Microsoft Excel2003 (Microsoft Corp., Redmond, WA).
Consider `CNC(=O)c1cc(F)c(-c2nc3cc(C)ccn3c2CC2COCCN(C(=O)OC)C2)c(F)c1` (single isomer, unassigned) [A16 (Peak 2), methyl 6-((2-(2,6-difluoro-4-(methylcarbamoyl)phenyl)-7-meth-ylimidazo[1,2-a]pyridin-3-yl)methyl)-1,4-oxazepane-4-carboxylate], for which the “P2X3 IC50 column, given as % @ 1 μM” value is listed as 23% @ 1 μM. Still for that read-out and setting: the figure for `CNC(=O)c1cc(F)c(-c2nc3cc(C)ccn3c2CC2CCCCN(C(=O)OC)C2)c(F)c1` (single isomer, unassigned) [A17 (Peak 2), methyl 3-((2-(2,6-difluoro-4-(methylcarbamoyl)phenyl)-7-methylimidazo[1,2-a]pyridin-3-yl)methyl)azepane-1-carboxylate] is 21% @ 1 μM.

Still in this test, the particulars now being: @ 1 μM, antagonist mode, αβ-meATP 3 μM, read-out: P2X3 IC50 column, given as % @ 1 μM.
As to `CNC(=O)c1ccc(-c2nc3cc([S+](C)[O-])ccn3c2C[C@H]2CN(C(=O)OC)CCO2)c(F)c1` (single isomer, unassigned) [A47 (Peak 1)], the inhibition at 1 µM was found to be 5%.

Staying with this test, now noted: HEK293, @ 1 μM, antagonist mode, αβ-meATP 3 μM, read-out: P2X3 IC50 column, given as % @ 1 μM.
For the compound `CNC(=O)c1cc(F)c(-c2nc3cc(C)ccn3c2CC2CN(C(=O)OC)CCCO2)c(F)c1` (single isomer, unassigned) [A14 (Peak 1), methyl 2-((2-(2,6-difluoro-4-(methylcarbamoyl)phenyl)-7-methylimidazo[1,2-a]pyridin-3-yl)methyl)-1,4-oxazepane-4-carboxylate], the inhibition at 1 µM came out at 39%. Turning to `CNC(=O)c1cc(F)c(-c2nc3cc(C)ccn3c2CC2COCCN(C(=O)OC)C2)c(F)c1` (single isomer, unassigned) [A16 (Peak 1), methyl 6-((2-(2,6-difluoro-4-(methylcarbamoyl)phenyl)-7-meth-ylimidazo[1,2-a]pyridin-3-yl)methyl)-1,4-oxazepane-4-carboxylate], the inhibition at 1 µM worked out at 29%. The same measure, in the same setting: as for `CNC(=O)c1cc(F)c(-c2nc3cc(C)ccn3c2CC2CCCCN(C(=O)OC)C2)c(F)c1` (single isomer, unassigned) [A17 (Peak 1), methyl 3-((2-(2,6-difluoro-4-(methylcarbamoyl)phenyl)-7-methylimidazo[1,2-a]pyridin-3-yl)methyl)azepane-1-carboxylate], the figure is 30%.

Staying with this test, now noted: antagonist mode, αβ-meATP 3 μM.
With `CNC(=O)c1cc(F)c(-c2nc3cc(C)ccn3c2CC2CN(C(=O)OC)CCCO2)c(F)c1` (single isomer, unassigned) [A14 (Peak 2), methyl 2-((2-(2,6-difluoro-4-(methylcarbamoyl)phenyl)-7-methylimidazo[1,2-a]pyridin-3-yl)methyl)-1,4-oxazepane-4-carboxylate], the IC50 is < 100 nM.

As to `CNC(=O)c1cc(F)c(-c2nc3cc(C)ccn3c2CC2CCCN(C(=O)OC)CC2)c(F)c1` (single isomer, unassigned) [A18 (Peak 1), methyl 4-((2-(2,6-difluoro-4-(methylcarbamoyl)phenyl)-7-methylimidazo[1,2-a]pyridin-3-yl)methyl)azepane-1-carboxylate], the IC50 is < 100 nM. On the same count and under the same terms, as for `CNC(=O)c1cc(F)c(-c2nc3cc(C)ccn3c2CC2CCCN(C(=O)OC)CC2)c(F)c1` (single isomer, unassigned) [A18 (Peak 2), methyl 4-((2-(2,6-difluoro-4-(methylcarbamoyl)phenyl)-7-methylimidazo[1,2-a]pyridin-3-yl)methyl)azepane-1-carboxylate], the figure is 100 to 1000 nM.

For `CNC(=O)c1ccc(-c2nc3cc(C(O)C(F)(F)F)ccn3c2C[C@H]2CN(C(=O)OC)CCO2)c(F)c1` (single isomer, unassigned) [A46 (Peak 1)], the IC50 was > 1000 nM. The same measure, in the same setting: as for `CNC(=O)c1ccc(-c2nc3cc(C(O)C(F)(F)F)ccn3c2C[C@H]2CN(C(=O)OC)CCO2)c(F)c1` (single isomer, unassigned) [A46 (Peak 2)], the figure is > 1000 nM; as for `CNC(=O)c1ccc(-c2nc3cc([S+](C)[O-])ccn3c2C[C@H]2CN(C(=O)OC)CCO2)c(F)c1` (single isomer, unassigned) [A47 (Peak 2)], > 1000 nM.
